Data on one compound can be found in patent publication US8563067B2, “Extended shelf life and bulk transport of perishable organic liquids with low pressure carbon dioxide” (Cornell Research Foundation, Inc., priority 2004, dated 2013).

One data set relates to thermoduric bacteria. Kind of data set: Thermoduric bacteria (laboratory pasteurization count) in raw milk under CO2 pressure (Example 1). In kind it is cell-based. As to conditions: 4° C. The procedure:
(§1) Milk samples were mixed and 5 ml of milk added into the treatment and control vessels. The treatment vessel was connected to the apparatus and the control vessel closed off. Both vessels were placed in the water bath. When the desired temperatures were attained in both treatment and control vessels, CO2 was introduced through the bottom of the treatment vessel until the set pressure was reached. The CO2 pressure was maintained throughout the test period. When the desired time was reached, the CO2 inlet was turned off, the pressure release valve on the outlet line opened, and the pressure released in under one minute. After depressurization, the treatment and control vessels were removed from the water bath and their external surfaces were wiped dry, sanitized with 95% ethanol, detached from the apparatus and transferred into sterile containers for dilution and plating.
(§2) The progression of these counts (total, Coliform/E. coli and thermoduric bacteria) in the treatment and control samples was tracked by conducting checks on the total aerobic counts (SPC) on treatment days 4 and 6. Based on the levels of total counts on days 4 and 6, analyses of total coli forms/E. coli and thermoduric bacteria after day 6 were conducted either in 1-day or 2-day intervals. The control sample final count was measured on days 4 and 6.
(§3) Initial total, coliform, and thermoduric counts were each determined for control and treated samples. Thermoduric organisms were enumerated by the laboratory pasteurization count (LPC) method described in the Standard Methods for the Examination of Dairy Products (Houghtby et al., 1992). The 3M Petri film count plate (3M Microbiology Products, St. Paul, Minn.) was used to enumerate total coli forms and Escherichia coli in the raw, treated and control milk samples.

The subject of another data set is Escherichia coli. Description: E. coli count (Petrifilm) in raw milk under CO2 pressure (Example 1). The format is cell-based. As to conditions: 4° C. The procedure:
as §1, §2, §3

The next data set concerns coliforms. Kind of data set: Total coliforms (Petrifilm) in raw milk under CO2 pressure (Example 1). In kind it is cell-based. The note with it: 689 kPa CO2 pressure, 4° C. The procedure: as §1, §2, §3
Data set [1] relates to gram-negative lactose fermenting bacteria. Kind of data set: Gram-negative lactose fermenting bacteria on MacConkey agar, raw milk under CO2 pressure (Example 1). As to conditions: 6.1° C., 4 days. In kind it is cell-based. The procedure:
(§4) Raw milk from the T&R Center was monitored for changes in aerobic bacteria, gram-negative bacteria and total Lactobacillus spp. as follows: CO2 pressures of 0 (control), 68, 172, 344, 516 and 689 kPa, at 6.1° C. for 4-days. SPC, gram-negative bacteria and total Lactobacillus spp. were enumerated before (day 0) and after (day 4) treatment. Gram negative bacteria were enumerated on MacConkey Agar (Difco Manual, Becton Dickinson & Co., Sparks, Md.), a selective and differential media which can be used to discriminate between lactose fermenting and non-lactose fermenting gram-negative bacteria. Use of this media allows a one-step method of obtaining estimates of both coliform and non-coliform gram negative bacteria. Coliform bacteria may include species of Escherichia, Klebsiella and Enterobacter, potential pathogens and/or spoilage organisms. Non-coliform gram negative bacteria may include spoilage organisms such as pseudomonads or potential pathogens such as Salmonella spp. or Shigella spp. […]
(§5) For all microbiological assays, milk sample aliquots of 1 ml were used in dilution series. […] Representative and distinctive suspect colonies were gram stained, and confirmed gram positive bacilli colonies were counted as an estimate of total Lactobacillus spp.

The test system of the next data set is Lactobacillus spp. Description: Total Lactobacillus spp. on acidified MRS agar, raw milk under CO2 pressure (Example 1). In kind it is cell-based. As to conditions: current study. The procedure: as §4, §5
Data set [2] in a line: pH of raw milk after CO2 pressure treatment (Example 1). As to conditions: for pH after treatment (6.6 before treatment): 6.1° C., 4 days; for pH of milk samples: 10° C. The format is physicochemical. Here is the method:
The pH of the treated and control milk samples (as measured at atmospheric pressure) was 6.6 to 5.9 at CO2 pressures≦516 kPa and 5.7 when treated at pressures≧516 kPa and 20° C. The pH of the treated and control milk samples, when treated at 10° C., was 5.5 at CO2 pressures≦516 kPa and 5.8 when treated at pressures≧516 kPa.

The mark [3] stands for this setting: 689 kPa CO2 pressure, 4 days, raw milk.
Setting [4] is: 689 kPa CO2 pressure, 6 days, raw milk.
Setting [5] is: 689 kPa CO2 pressure, 8 days, raw milk.
Where [6] appears, read: 689 kPa CO2 pressure, 9 days, raw milk.

As for `O=C=O` [CO2, carbon dioxide], in the data set with thermoduric bacteria (setting [3]), the “Thermoduric Bacteria counts, Treated, 4 Days” value was 1.0 * 10^0 cfu/ml. The “Thermoduric Bacteria counts, Treated, 6 Days” value with thermoduric bacteria (setting [4]) is 9.0 * 10^0m cfu/ml. The “Thermoduric Bacteria counts, Treated, 8 Days” value in the data set with thermoduric bacteria (setting [5]) is given as 2.1 * 10^1n cfu/ml. Also, in the data set with thermoduric bacteria (setting [6]), the “Thermoduric Bacteria counts, Treated, 9 Days” value is given as 3.7 * 10^1o cfu/ml. For the same compound, in the data set on thermoduric bacteria (689 kPa, up to 9 days), the “total thermoduric bacteria counts in treated milk” value is “Neither E. coli nor total thermoduric bacteria counts increased”. The “E.coli counts, Treated, 4 Days” value in the data set on Escherichia coli (setting [3]) was 1.7 * 10^1k cfu/ml. Further, the “E.coli counts, Treated, 6 Days” value in the data set with Escherichia coli (setting [4]) is listed as 1.7 * 10^1k cfu/ml. Moreover, in the data set on Escherichia coli (setting [5]), the “E.coli counts, Treated, 8 Days” value was 1.7 * 10^1k cfu/ml. The “E.coli counts, Treated, 9 Days” value in the data set with Escherichia coli (setting [6]) was 1.5 * 10^1k cfu/ml. Besides, the “E. coli counts in treated milk” value with Escherichia coli (689 kPa, up to 9 days) was “Neither E. coli nor total thermoduric bacteria counts increased”. In addition, the “Coliforms counts, Treated, 4 Days” value with coliforms (4 days) is reported as 1.0 * 10^2h cfu/ml. In the data set with coliforms (6 days), the “Coliforms counts, Treated, 6 Days” value is 1.0 * 10^2h cfu/ml. For the same compound, the “Coliforms counts, Treated, 8 Days” value in the data set with coliforms (8 days) is listed as 9.3 * 10^1h cfu/ml. For the same compound, the “Coliforms counts, Treated, 9 Days” value in the data set on coliforms (9 days) was 9.0 * 10^1h cfu/ml. The “levels of gram-negative fermenters compared to untreated controls” value in data set [1] (68 to 689 kPa) is on record as “reduced at all pressures”. Moreover, in data set [1] (689 kPa), the “decrease of gram-negative lactose fermenting bacteria compared to initial counts” value stood at 0.80 log10 cfu/ml. For the same compound, in the data set on Lactobacillus spp., the “populations of Lactobacillus after CO2 pressure treatment” value is “decreased”. The “pH after treatment (6.6 before treatment)” value in data set [2] (68 kPa) came out at 5.9; in data set [2] (344 kPa) it was 5.8; in data set [2] (516 kPa), 5.5. For the same compound, the “pH of treated milk (initial value 6.6)” value in data set [2] (689 kPa, 4° C., end of days 4, 6, 8 and 9) was found to be 5.5. Also, the “pH of milk samples” value in data set [2] (CO2 pressures ≦516 kPa) was determined as 5.5; in data set [2] (pressures ≧516 kPa) it was 5.8. Moreover, the “pH of milk samples (measured at atmospheric pressure)” value in data set [2] (pressures ≧516 kPa, 20° C.) is reported as 5.7.
